In BigSolDB 2.1:

Cc1ccc(S(=O)(=O)NC(=O)NN2CC3CCCC3C2)cc1 (stereo not drawn)
solubility (mole fraction)
Settings | 278.15 K | 283.15 K | 288.15 K | 293.15 K | 298.15 K | 303.15 K | 308.15 K | 313.15 K | 318.15 K
in DMF | 0.0571 | 0.0629 | 0.0684 | 0.0743 | 0.0801 | 0.0866 | 0.0935 | 0.101 | 0.109
in THF | 0.018 | 0.0217 | 0.0266 | 0.0318 | 0.0384 | 0.0462 | 0.0539 | 0.0635 | 0.076
in acetone | 0.00883 | 0.0103 | 0.0121 | 0.0141 | 0.0166 | 0.0191 | 0.0219 | 0.0252 | 0.0291
in acetonitrile | 0.00172 | 0.00211 | 0.00262 | 0.00319 | 0.0039 | 0.00473 | 0.00557 | 0.00658 | 0.00796
in chloroform | 0.0581 | 0.0641 | 0.07 | 0.0773 | 0.0842 | 0.0919 | 0.1 | 0.109 | 0.119
in cyclohexanone | 0.0112 | 0.0133 | 0.0155 | 0.0181 | 0.0209 | 0.0243 | 0.0278 | 0.0322 | 0.0371
in ethanol | 0.000739 | 0.000911 | 0.00113 | 0.00137 | 0.00169 | 0.00203 | 0.00249 | 0.00296 | 0.00358
in ethyl acetate | 0.00146 | 0.00174 | 0.00212 | 0.00248 | 0.00294 | 0.00351 | 0.00411 | 0.00477 | 0.00558
in ethyl formate | 0.00188 | 0.00239 | 0.00297 | 0.00364 | 0.00453 | 0.00549 | 0.00673 | 0.0082 | 0.00976
in isobutanol | 0.00042 | 0.000544 | 0.000709 | 0.000916 | 0.00114 | 0.00146 | 0.0018 | 0.00226 | 0.00286
in isopropanol | 0.000332 | 0.000439 | 0.000579 | 0.000738 | 0.000945 | 0.0012 | 0.00151 | 0.00192 | 0.00241
in methanol | 0.00122 | 0.00149 | 0.00178 | 0.00216 | 0.00257 | 0.00304 | 0.00358 | 0.00428 | 0.00497
in methyl acetate | 0.00229 | 0.00283 | 0.00339 | 0.00418 | 0.00499 | 0.00588 | 0.00699 | 0.00838 | 0.00982
in n-butanol | 0.000624 | 0.000787 | 0.000984 | 0.00123 | 0.00152 | 0.00192 | 0.0023 | 0.00286 | 0.00344
in n-propanol | 0.000655 | 0.000831 | 0.00103 | 0.00129 | 0.00162 | 0.00199 | 0.00238 | 0.00291 | 0.0035
in sec-butanol | 0.000505 | 0.000643 | 0.000834 | 0.00106 | 0.00133 | 0.00166 | 0.00205 | 0.00258 | 0.00322
in toluene | 0.000307 | 0.000395 | 0.000499 | 0.000634 | 0.000789 | 0.000979 | 0.00119 | 0.0015 | 0.00181
